# Laboratory results as given in patent publication US7704533B2, “Compositions and methods of inducing hair growth utilizing Continus coggygria” (J&J Consumer Companies, Inc., priority 2006, dated 2010).
# Columns and labels:
# C3H mice = assay: Hair growth induction in C3H mice (mice entering anagen); format: in vivo
# Description: C3H female mice age 6-7 weeks of age were purchased from Taconic Farms (Germantown, N.Y.). Mice were housed in appropriately sized cages in an environmentally controlled room with a 12-hour light-12-hour dark photoperiod and supplied with food and water ad libitum. Animal care was based on the “Guide for the Care and Use of Laboratory Animals”, NIH Publication No. 85-23. Animals were acclimated for a week before study starts. Once all mice entered their prolonged telogen/resting phase (about 50-60 days long) of the hair cycle, they were clipped over the dorsal area about 1.5×5 cm (Wahl Clippers 8900 Series, Blade # 1086). Seven female mice per group were clipped while sedated with 2% induction and maintenance isoflurane and 0.5 L Oxygen. In addition to the 150 mg/ml Cotinus coggygria formulation, the treatment groups included a placebo, 5% Minoxidil as positive control and an untreated group to serve as control for natural hair growth initiation and to observe placebo effects. 200 μl of test materials were applied topically to the area daily, 5 days a week. Images were taken at the first signs of anagen/active growth phase and when needed based on visual observation. Skin samples were obtained for histological analysis at week 3 and a study log documenting day-to-day observations of mice entering anagen (grey skin, the first visual clue to a new hair growth) were recorded. Treatments continued for up to 6 weeks. […] C3H mice were treated as described in Example 3. In addition to the 150 mg/ml Cotinus coggygria formulation prepared as a concentrate via heat processing, a lyophilized Cotinus extract powder was prepared as described above, as well as lower (60 mg/ml, 90 mg/ml, 120 mg/ml) and higher concentrations (up to 210 mg/ml) of Cotinus coggygria extracts (Table III). The treatment groups included a placebo, 5% minoxidil as positive control and an untreated group to serve as control for natural hair growth initiation and to observe placebo effects. 200 ul of test materials were applied topically to the area daily, 5 days a week. Images were taken at the first signs of anagen/active growth phase and when needed based on visual observation. Skin samples were obtained for histological analysis and a study log documenting day-to-day observations of mice entering anagen (grey skin) were recorded. Treatments continued for up to 6 weeks. […] Moreover, a dose-dependent increase in dorsal hair coverage was observed visually and documented by images, and also confirmed by histological analysis. […] C3H female mice clipped over the dorsal area once they have entered their prolonged telogen phase (about 8 weeks long) were topically treated once daily for 6 weeks with 200 μl 150 mg/ml of Cotinus coggygria extract or with 5% Minoxidil or with the combination of both agents. […] C3H hair growth studies were performed as described in earlier examples, with the addition of formulation agents to the cotinus extract preparation.
# [1] = tested on: postmenopausal women with androgenetic alopecia; conditions: one-year trial; cited from earlier work
smiles,measurement,setting,value
"Nc1cc(N2CCCCC2)nc(N)[n+]1[O-] [5% Minoxidil, Minoxidil]",% of mice entering anagen,"C3H mice; Table II, day 9 of study, listed as Ave 5% Minoxidil",7%
same,% of mice entering anagen,"C3H mice; Table II, day 9 of study, listed as Best 5% Minoxidil",20%
same,% of mice entering anagen,"C3H mice; Table II, day 10 of study, listed as Ave 5% Minoxidil",18%
same,% of mice entering anagen,"C3H mice; Table II, day 10 of study, listed as Best 5% Minoxidil",40%
same,% of mice entering anagen,"C3H mice; Table II, day 13 of study, listed as Ave 5% Minoxidil",18%
same,% of mice entering anagen,"C3H mice; Table II, day 13 of study, listed as Best 5% Minoxidil",40%
same,% of mice entering anagen,"C3H mice; Table II, day 14 of study, listed as Ave 5% Minoxidil",31%
same,% of mice entering anagen,"C3H mice; Table II, day 14 of study, listed as Best 5% Minoxidil",80%
same,% of mice entering anagen,"C3H mice; Table II, day 16 of study, listed as Ave 5% Minoxidil",31%
same,% of mice entering anagen,"C3H mice; Table II, day 16 of study, listed as Best 5% Minoxidil",80%
same,% of mice entering anagen,"C3H mice; Table II, day 20 of study, listed as Ave 5% Minoxidil",32%
same,% of mice entering anagen,"C3H mice; Table II, day 20 of study, listed as Best 5% Minoxidil",80%
same,% of mice entering anagen,"C3H mice; Table II, day 22 of study, listed as Ave 5% Minoxidil",41%
same,% of mice entering anagen,"C3H mice; Table II, day 22 of study, listed as Best 5% Minoxidil",80%
same,% of mice entering anagen,"C3H mice; Table II, day 23 of study, listed as Ave 5% Minoxidil",38%
same,% of mice entering anagen,"C3H mice; Table II, day 23 of study, listed as Best 5% Minoxidil",80%
same,% of mice entering anagen,"C3H mice; Table II, day 24 of study, listed as Ave 5% Minoxidil",36%
same,% of mice entering anagen,"C3H mice; Table II, day 24 of study, listed as Best 5% Minoxidil",75%
same,% of mice entering anagen,"C3H mice; Table II, day 27 of study, listed as Ave 5% Minoxidil",36%
same,% of mice entering anagen,"C3H mice; Table II, day 27 of study, listed as Best 5% Minoxidil",75%
same,% of mice entering anagen,"C3H mice; Table II, day 29 of study, listed as Ave 5% Minoxidil",36%
same,% of mice entering anagen,"C3H mice; Table II, day 29 of study, listed as Best 5% Minoxidil",100%
same,% of mice entering anagen,"C3H mice; Table II, day 31 of study, listed as Ave 5% Minoxidil",45%
same,% of mice entering anagen,"C3H mice; Table II, day 31 of study, listed as Best 5% Minoxidil",100%
same,% of mice entering anagen,"C3H mice; Table II, day 35 of study, listed as Ave 5% Minoxidil",48%
same,% of mice entering anagen,"C3H mice; Table II, day 35 of study, listed as Best 5% Minoxidil",100%
same,% of mice entering anagen,"C3H mice; Table II, day 42 of study, listed as Ave 5% Minoxidil",63%
same,% of mice entering anagen,"C3H mice; Table II, day 42 of study, listed as Best 5% Minoxidil",100%
same,% of mice entering anagen,"C3H mice; Table II, day 43 of study, listed as Ave 5% Minoxidil",87%
same,% of mice entering anagen,"C3H mice; Table II, day 43 of study, listed as Best 5% Minoxidil",100%
same,% of mice entering anagen,"C3H mice; Table II, day 44 of study, listed as Ave 5% Minoxidil",93%
same,% of mice entering anagen,"C3H mice; Table II, day 44 of study, listed as Best 5% Minoxidil",100%
same,% of mice entering anagen,"C3H mice; Table III, day 8 of study",0%
same,% of mice entering anagen,"C3H mice; Table III, day 9 of study",0%
same,% of mice entering anagen,"C3H mice; Table III, day 10 of study",14%
same,% of mice entering anagen,"C3H mice; Table III, day 11 of study",43%
same,% of mice entering anagen,"C3H mice; Table III, day 14 of study",33%
same,% of mice entering anagen,"C3H mice; Table III, day 15 of study",33%
same,% of mice entering anagen,"C3H mice; Table III, day 16 of study",33%
same,% of mice entering anagen,"C3H mice; Table III, day 17 of study",20%
same,% of mice entering anagen,"C3H mice; Table III, day 18 of study",40%
same,% of mice entering anagen,"C3H mice; Table III, day 21 of study",80%
same,% of mice entering anagen,"C3H mice; Table III, day 22 of study",80%
same,% of mice entering anagen,"C3H mice; Table III, day 23 of study",80%
same,% of mice entering anagen,"C3H mice; Table III, day 24 of study",80%
same,% of mice entering anagen,"C3H mice; Table III, day 25 of study",80%
same,% of mice entering anagen,"C3H mice; Table III, day 28 of study",80%
same,% of mice entering anagen,"C3H mice; Table III, day 29 of study",80%
CC(C)(C)NC(=O)[C@H]1CC[C@H]2[C@@H]3CC[C@H]4NC(=O)C=C[C@]4(C)[C@H]3CC[C@]12C [Finasteride],scalp hair growth,[1],did not improve scalp hair growth
